The values that follow come from the NIST ThermoML archive (doi:10.1021/je060348v).

± gives the expanded uncertainty stated by the source.

The conditions of the series: Crystal; visual observation.

For the molecule `OC[C@@H](O)[C@H](O)[C@@H](O)CO` [xylitol], the Normal melting temperature came to 94.50 ± 1 °C.
